pIC50: −log10 of the molar value.
What was measured:
[1] = molecular target: c-Kit kinase (Homo sapiens (Human), UniProt P10721); assay: c-Kit biochemical assay (AlphaScreen kinase activity)
In short: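 IC50 values come from 8-point, 1:3 compound titrations measuring inhibition of peptide phosphorylation by c-Kit (commercial or His-tagged E. coli-expressed) over 1 h at room temperature, read by AlphaScreen PY30/streptavidin beads. Low-ATP version: 10 μM ATP, 100 nM biotin-(E4Y)3; high-ATP version: 100 μM ATP, 30 nM biotin-(E4Y)10.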

[2] = system: BaF3-FL KIT D816V or BaF3-FL KIT V560G/D816V cell line; assay: Cell-based assays of c-Kit mutant kinase activity (cell proliferation, ATPlite); details: at least one of the c-kit cell assays of Example 7
In short: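 BaF3 cells dependent on transfected full-length human KIT D816V or V560G/D816V (pCI-Neo, CMV promoter) were seeded at 1×10^4 cells/well and exposed to 8-point 1:3 dilutions from 10 μM top (0.2% DMSO) for three days at 37° C. ATPlite luminescence gave cell number; IC50 from concentration-response.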

Chain of c-Kit kinase (P10721 26-976): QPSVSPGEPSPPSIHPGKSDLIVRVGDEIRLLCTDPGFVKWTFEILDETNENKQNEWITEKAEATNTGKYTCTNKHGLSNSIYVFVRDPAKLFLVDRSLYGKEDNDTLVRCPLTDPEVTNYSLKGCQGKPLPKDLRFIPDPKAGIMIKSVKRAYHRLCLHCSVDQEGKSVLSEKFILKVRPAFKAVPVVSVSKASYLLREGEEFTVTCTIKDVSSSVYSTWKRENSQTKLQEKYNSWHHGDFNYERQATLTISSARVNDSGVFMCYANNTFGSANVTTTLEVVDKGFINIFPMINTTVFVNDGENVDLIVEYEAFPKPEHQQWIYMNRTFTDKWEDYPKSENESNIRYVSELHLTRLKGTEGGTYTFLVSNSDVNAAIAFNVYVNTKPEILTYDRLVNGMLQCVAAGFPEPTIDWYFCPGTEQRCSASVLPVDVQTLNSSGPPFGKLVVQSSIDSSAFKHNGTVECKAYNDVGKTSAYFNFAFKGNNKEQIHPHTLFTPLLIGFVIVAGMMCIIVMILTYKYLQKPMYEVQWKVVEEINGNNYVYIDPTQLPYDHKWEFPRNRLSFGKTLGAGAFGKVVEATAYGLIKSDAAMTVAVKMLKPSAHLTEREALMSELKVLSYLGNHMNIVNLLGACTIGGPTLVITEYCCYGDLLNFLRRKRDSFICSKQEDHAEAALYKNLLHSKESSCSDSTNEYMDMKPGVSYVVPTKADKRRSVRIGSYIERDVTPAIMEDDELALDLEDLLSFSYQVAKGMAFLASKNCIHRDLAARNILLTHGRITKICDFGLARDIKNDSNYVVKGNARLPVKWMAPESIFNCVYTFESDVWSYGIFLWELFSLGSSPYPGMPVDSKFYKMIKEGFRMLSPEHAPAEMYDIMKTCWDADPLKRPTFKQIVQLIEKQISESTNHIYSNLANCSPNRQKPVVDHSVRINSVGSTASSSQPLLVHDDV

| Structure (SMILES) | IC50 [1] [µM] | pIC50 [2] |
| --- | --- | --- |
| Cc1nc(C2CCN(c3ncnc4[nH]c(-c5ccc(F)cc5)cc34)CC2)[nH]c1-c1ccc(F)cc1 [P-3006, 6-(4-fluorophenyl)-4-[4-[5-(4-fluorophenyl)-4-methyl-1H-imidazol-2-yl]-1-piperidyl]-7H-pyrrolo[2,3-d]pyrimidine] | 0.0001 to 1 | > 5.00 |
| Cc1ccc(-c2[nH]c(C3CCN(c4ncnc5[nH]c(-c6ccc(C#N)cc6)cc45)CC3)nc2C)cc1 [P-3089, 4-[4-[4-[4-methyl-5-(p-tolyl)-1H-imidazol-2-yl]-1-piperidyl]-7H-pyrrolo[2,3-d]pyrimidin-6-yl]benzonitrile] | 0.0001 to 1 | > 5.00 |
| Cc1ccc(-c2[nH]c(C3CCN(c4ncnc5[nH]c(-c6ccc(C#N)cc6)cc45)CC3)nc2C)s1 [P-3090, 4-[4-[4-[4-methyl-5-(5-methyl-2-thienyl)-1H-imidazol-2-yl]-1-piperidyl]-7H-pyrrolo[2,3-d]pyrimidin-6-yl]benzonitrile] | 0.0001 to 1 | > 5.00 |
| COc1cc(-c2cc3c(N4CCC(c5nc(C)c(-c6ccc(OC(C)C)cc6)[nH]5)CC4)ncnc3[nH]2)ccn1 [P-3091, 4-[4-[5-(4-isopropoxyphenyl)-4-methyl-1H-imidazol-2-yl]-1-piperidyl]-6-(2-methoxy-4-pyridyl)-7H-pyrrolo[2,3-d]pyrimidine] | 0.0001 to 1 | > 5.00 |
| Cc1nc(C2CCN(c3ncnc4[nH]c(-c5ccc(F)cc5)cc34)CC2)[nH]c1-c1ccc(OC(C)C)cc1 [P-3092, 6-(4-fluorophenyl)-4-[4-[5-(4-isopropoxyphenyl)-4-methyl-1H-imidazol-2-yl]-1-piperidyl]-7H-pyrrolo[2,3-d]pyrimidine] | 0.0001 to 1 | > 5.00 |
| Cc1nc(C2CCN(c3ncnc4[nH]c(-c5ccc(C#N)cc5)cc34)CC2)[nH]c1-c1ccc(OC(C)C)cc1 [P-3093, 4-[4-[4-[5-(4-isopropoxyphenyl)-4-methyl-1H-imidazol-2-yl]-1-piperidyl]-7H-pyrrolo[2,3-d]pyrimidin-6-yl]benzonitrile] | 0.0001 to 1 | > 5.00 |
| CCOc1cc(-c2[nH]c(C3CCN(c4ncnc5[nH]c(-c6ccc(F)cc6)cc45)CC3)nc2C)ccc1C [P-3094, 4-[4-[5-(3-ethoxy-4-methyl-phenyl)-4-methyl-1H-imidazol-2-yl]-1-piperidyl]-6-(4-fluorophenyl)-7H-pyrrolo[2,3-d]pyrimidine] | 0.0001 to 1 | > 5.00 |

From US9771369B2, “Compounds and methods for kinase modulation, and indications therefor” (Plexxikon Inc., priority 2014, dated 2017)
